# According to patent publication US20240415878A1, “Compositions and Methods for Modulating Mitochondrial Function” (Board of Regents, The University of Texas System, priority 2021, published 2024):
# Legend:
# MCU = target: T1, MCU (Homo sapiens, UniProt Q8NE86); assay: MCU-mediated mCa2+ uptake in permeabilized cells (spectrofluorometry); assay type: cell-based; details: permeabilized cells (HeLa, 10 μM per FIG. 10H legend)
# T1 construct: endogenous in cells; host or cells: HeLa cells, permeabilized
# T1 sequence (Q8NE86 51-351): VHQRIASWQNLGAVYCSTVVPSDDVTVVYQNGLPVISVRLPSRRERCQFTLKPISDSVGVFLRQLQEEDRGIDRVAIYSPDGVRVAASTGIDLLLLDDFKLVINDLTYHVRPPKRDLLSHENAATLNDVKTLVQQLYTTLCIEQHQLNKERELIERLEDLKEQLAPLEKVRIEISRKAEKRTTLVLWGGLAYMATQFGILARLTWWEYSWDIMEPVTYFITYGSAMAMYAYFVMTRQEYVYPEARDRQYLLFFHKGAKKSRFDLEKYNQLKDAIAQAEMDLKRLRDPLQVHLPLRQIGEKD
# T1 sequence (Q9H4I9 48-107 partner limits assumed): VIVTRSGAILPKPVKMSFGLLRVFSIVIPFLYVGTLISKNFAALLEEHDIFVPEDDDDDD
# Experimental: Bacterial CorA forms a pentameric complex that selectively drives Mg2+ uptake in an electrogenic manner. […] Mrs2 is the eukaryotic homologue of CorA and contains two transmembrane domains with a well-conserved F/Y-G-M-N motif; therefore, CorA blockers were tested to determine if they alter Mrs2-mediated mMg^2+ uptake (Moomaw and Maguire, 2008). Digitonin permeabilized hepatocytes were utilized to measure the inhibitory effect and determine its IC50. Permeabilized cells were treated with CPACC followed by a 1 mM bolus of MgCl2 (FIG. 10B). A 1 mM Mg^2+ bolus was added after baseline recording, and the extramitochondrial Mg^2+ clearance was used as a read-out for Mrs2-mediated mMg^2+ uptake using Mag-Green as a Mg^2+ indicator. […] We next investigated Mrs2 inhibition in intact hepatocytes loaded with Mag-Green-AM. […] Next CPACC was examined to determine if it had any effect on MCU-mediated mCa^2+ uptake in permeabilized cells. […] The availability of the compound to intact cells was measured using graphite furnace atomic absorption spectroscopy (GFAAS) and bicinchoninic acid in parallel.
# Spectrofluorimetric measurement of mitochondrial Mg^2+ and Ca^2+ dynamics and citrate mediated MagGreen fluorescence quenching. Fluorescence measurements were conducted in a multiwavelength excitation dual wavelength emission spectrofluorometer (Delta RAM, PTI, HORIBA). […]
# hepatocytes = assay: Cellular uptake assay (GFAAS, Co normalised to protein); assay type: in vitro ADME, murine; details: intact hepatocytes
# Experimental: Cellular uptake assay. Hepatocytes were treated with varying doses of CPACC for 30 minutes, cells were washed in Ca^2+ and Mg^2+ free DPBS, and cell pellets flash-frozen. Pellets were suspended in ice cold lysis buffer (0.1% Triton X-100 and 0.2% HNO3 in ultrapure water). The suspension was vortexed for 30 s and incubated on ice for 45 min. The cell lysate was centrifuged, and the supernatant was transferred to a clean tube prior to analysis. The Co^3+ content of the lysate was determined using graphite furnace atomic absorption spectroscopy (GFAAS) and was normalized to the protein content of the sample, which was determined using the bicinchoninic acid (BCA) assay kit following manufacturer instructions (ThermoFisher). Results are reported as the average mass ratio of Co to protein (pg/μg) in each sample±SEM.
# Bacterial CorA = Bacterial CorA (Salmonella typhimurium, UniProt P0A2R8); details: Kucharski et al., 2000, read-out: IC50 for CorA inhibition; cited from earlier work
# Bacterial CorA, sequence (P0A2R8 whole entry): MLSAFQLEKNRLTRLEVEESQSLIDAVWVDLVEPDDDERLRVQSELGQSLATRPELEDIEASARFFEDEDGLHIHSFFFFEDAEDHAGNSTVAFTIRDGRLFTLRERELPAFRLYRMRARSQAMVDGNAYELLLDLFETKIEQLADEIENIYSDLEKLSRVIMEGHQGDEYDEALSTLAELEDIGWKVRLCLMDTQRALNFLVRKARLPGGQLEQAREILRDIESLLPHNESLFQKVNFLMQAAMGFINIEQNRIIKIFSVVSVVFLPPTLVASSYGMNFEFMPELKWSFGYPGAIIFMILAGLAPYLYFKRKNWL
compound,measurement,setting,value
"[NH2][Co]([NH2])([NH2])([NH2])([NH2])[Cl] [CPACC, chloropentaammine cobalt (III) chloride]",MCU-mediated mCa^2+ uptake,MCU,did not inhibit
same,cellular accumulation of the compound (intracellular Co),hepatocytes,accumulates in the cell in a dose-dependent manner
same,IC50,Bacterial CorA,~100 µM
